Measured values from patent US7601746B2 (Shionogi & Co., Ltd., priority 2003, dated 2009).
pEC50: −log10 of the molar value.

biological target: T1, human TPO receptor (hTPOR) (Homo sapiens, UniProt P40238); test: Thrombopoietic activity: proliferation of TPO dependent BaF/hTPOR cells (WST-1, absorbance at 450 nm); format: cell-based; settings: 20 h + 4 h WST-1, ED50 = half concentration of the concentration showing the maximum thrombopoietic activity, Table 1
T1 construct: expressed in transfected cells; host or cells: BaF-B03 (murine IL-3 dependent cell line)
T1 sequence (P40238 26-635): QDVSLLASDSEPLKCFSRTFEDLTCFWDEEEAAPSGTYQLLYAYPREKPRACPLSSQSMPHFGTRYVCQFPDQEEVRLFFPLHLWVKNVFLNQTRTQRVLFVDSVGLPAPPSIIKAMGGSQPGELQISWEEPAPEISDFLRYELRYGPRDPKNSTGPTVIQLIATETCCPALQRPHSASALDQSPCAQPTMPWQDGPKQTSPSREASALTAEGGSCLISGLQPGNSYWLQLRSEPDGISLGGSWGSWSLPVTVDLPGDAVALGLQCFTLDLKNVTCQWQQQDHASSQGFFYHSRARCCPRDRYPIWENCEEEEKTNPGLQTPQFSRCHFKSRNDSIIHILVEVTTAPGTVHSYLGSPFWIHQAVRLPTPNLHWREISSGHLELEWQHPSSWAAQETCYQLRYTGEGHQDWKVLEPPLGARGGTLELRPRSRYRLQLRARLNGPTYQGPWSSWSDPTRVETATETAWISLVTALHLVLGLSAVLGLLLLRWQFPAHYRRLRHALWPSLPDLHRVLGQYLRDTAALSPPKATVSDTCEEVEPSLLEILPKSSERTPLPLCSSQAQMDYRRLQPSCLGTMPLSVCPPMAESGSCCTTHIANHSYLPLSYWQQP
How it was run: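 Proliferation read-out: WST-1 absorbance at 450 nm after 20 h compound exposure plus 4 h reagent, using IL-3-deprived BaF/hTPOR cells (5×10^4 per well) dependent on human TPO receptor signalling. ED50 defined as half the concentration producing maximal activity.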

pEC50	Structure (SMILES)
8.87	CCCCCOCCCc1cccc(-c2csc(NC(=O)c3cc(F)c(C=C(C)C(=O)O)c(F)c3)n2)c1F [Compound B45, 3-(2,6-difluoro-4-{4-[2-fluoro-3-(3-n-pentyloxypropyl)phenyl]thiazol-2-ylcarbamoyl}phenyl)-2-methylacrylic acid]
8.89	CCCCCCOCCCc1cccc(-c2csc(NC(=O)c3cc(F)c(C=C(C)C(=O)O)c(F)c3)n2)c1F [Compound B46, 3-(2,6-difluoro-4-{4-[2-fluoro-3-(3-n-hexyloxypropyl)phenyl]thiazol-2-ylcarbamoyl}phenyl)-2-methylacrylic acid]
8.55	CCCCCCCCCCC(OC)c1cccc(-c2csc(NC(=O)c3cc(F)c(C=C(C)C(=O)O)c(F)c3)n2)c1F (stereo not shown) [Compound B47, 3-(2,6-difluoro-4-{4-[2-fluoro-3-(1-methyloxyundecyl)phenyl]thiazol-2-ylcarbamoyl}phenyl)-2-methylacrylic acid]
8.65	CCCCCCCCCCCC(OC)c1cccc(-c2csc(NC(=O)c3cc(F)c(C=C(C)C(=O)O)c(F)c3)n2)c1F (stereo not shown) [Compound B48, 3-(2,6-difluoro-4-{4-[2-fluoro-3-(1-methyloxydodecyl)phenyl]thiazol-2-ylcarbamoyl}phenyl)-2-methylacrylic acid]
8.89	CCCCOCCCc1cccc(-c2csc(NC(=O)c3cc(F)c(C=C(C)C(=O)O)c(F)c3)n2)c1F [Compound B49, 3-(4-{4-[3-(3-n-butyloxypropyl)-2-fluorophenyl]thiazol-2-ylcarbamoyl}-2,6-difluorophenyl)-2-methylacrylic acid]
9.10	CCCCOC(C)c1cccc(-c2csc(NC(=O)c3cc(F)c(C=C(C)C(=O)O)c(F)c3)n2)c1F (stereo not shown) [Compound B50, 3-(4-{4-[3-(1-n-butyloxyethyl)-2-fluorophenyl]thiazol-2-ylcarbamoyl}-2,6-difluorophenyl)-2-methylacrylic acid]
9.17	CCCCOCCCC(OCCCC)c1cccc(-c2csc(NC(=O)c3cc(F)c(C=C(C)C(=O)O)c(F)c3)n2)c1F (stereo not shown) [Compound B51, 3-(4-{4-[3-(1,4-dibutyloxybutyl)-2-fluorophenyl]thiazol-2-ylcarbamoyl}-2,6-difluorophenyl)-2-methylacrylic acid]
8.77	CCCCCCOCCC(OC)c1cccc(-c2csc(NC(=O)c3cc(F)c(C=C(C)C(=O)O)c(F)c3)n2)c1F (stereo not shown) [Compound B52, 3-(2,6-difluoro-4-{4-[2-fluoro-3-(3-n-hexyloxy-1-methyloxyproyl)phenyl]thiazol-2-ylcarbamoyl}phenyl)-2-methylacrylic acid]
8.85	CCCCCOCCCC(OC)c1cccc(-c2csc(NC(=O)c3cc(F)c(C=C(C)C(=O)O)c(F)c3)n2)c1F (stereo not shown) [Compound B53, 3-(2,6-difluoro-4-{4-[2-fluoro-3-(1-methyloxy-4-n-pentyloxybutyl)phenyl]thiazol-2-ylcarbamoyl}phenyl)-2-methylacrylic acid]
8.57	CCOC(c1cccc(-c2csc(NC(=O)c3cc(Cl)c(C=C(C)C(=O)O)c(Cl)c3)n2)c1F)C(C)(C)C (stereo not shown) [Compound B56, 3-(2,6-dichloro-4-{4-[3-(1-ethyloxy-2,2-dimethylpropyl)-2-fluorophenyl]thiazol-2-ylcarbamoyl}phenyl)-2-methylacrylic acid]
8.82	CCCCCC(OC)c1cccc(-c2csc(NC(=O)c3cc(Cl)c(C=C(C)C(=O)O)c(Cl)c3)n2)c1F (stereo not shown) [Compound B58, 3-(2,6-dichloro-4-{4-[2-fluoro-3-(1-methyloxyhexyl)phenyl]thiazol-2-ylcarbamoyl}phenyl)-2-methylacrylic acid]
9.12	COC(CCC(C)C)c1cccc(-c2csc(NC(=O)c3cc(Cl)c(C=C(C)C(=O)O)c(Cl)c3)n2)c1F (stereo not shown) [Compound B60, 3-(2,6-dichloro-4-{4-[2-fluoro-3-(1-methyloxy-4-methylpentyl)phenyl]thiazol-2-ylcarbamoyl}phenyl)-2-methylacrylic acid]
9.12	CCCCCCCCCC(OC)c1cccc(-c2csc(NC(=O)c3cc(Cl)c(C=C(C)C(=O)O)c(Cl)c3)n2)c1F (stereo not shown) [Compound B61, 3-(2,6-dichloro-4-{4-[2-fluoro-3-(1-methyloxydecyl)phenyl]thiazol-2-ylcarbamoyl}phenyl)-2-methylacrylic acid]
9.12	CCOC(CC(C)(C)C)c1cccc(-c2csc(NC(=O)c3cc(Cl)c(C=C(C)C(=O)O)c(Cl)c3)n2)c1F (stereo not shown) [Compound B62, 3-(2,6-dichloro-4-{4-[2-fluoro-3-(1-ethyloxy-3,3-dimethylbutyl)phenyl]thiazol-2-ylcarbamoyl}phenyl)-2-methylacrylic acid]
8.92	COC(c1cccc(-c2csc(NC(=O)c3cc(Cl)c(C=C(C)C(=O)O)c(Cl)c3)n2)c1F)C(C)(C)C (stereo not shown) [Compound B64, 3-(2,6-dichloro-4-{4-[2-fluoro-3-(1-methyloxy-2,2-dimethylpropyl)phenyl]thiazol-2-ylcarbamoyl}phenyl)-2-methylacrylic acid]
8.98	CCOCCCCOC(CC)c1cccc(-c2csc(NC(=O)c3cc(Cl)c(C=C(C)C(=O)O)c(Cl)c3)n2)c1F (stereo not shown) [Compound B65, 3-[2,6-dichloro-4-(4-{3-[1-(4-ethyloxybutyloxy)propyl]-2-fluorophenyl]thiazol-2-ylcarbamoyl}phenyl)-2-methylacrylic acid]
9.04	CC(=Cc1c(Cl)cc(C(=O)Nc2nc(-c3cccc(CCCOCC(C)(C)C)c3F)cs2)cc1Cl)C(=O)O [Compound B66, 3-[2,6-dichloro-4-(4-{3-[3-(2,2-dimethylpropyloxy)propyl]-2-fluorophenyl]thiazol-2-ylcarbamoyl}phenyl)-2-methylacrylic acid]
9.32	CCCCCOC(CC)c1cccc(-c2csc(NC(=O)c3cc(Cl)c(C=C(C)C(=O)O)c(Cl)c3)n2)c1F (stereo not shown) [Compound B67, 3-[2,6-dichloro-4-(4-{3-[1-n-pentyloxypropyl]-2-fluorophenyl}thiazol-2-ylcarbamoyl)phenyl]-2-methylacrylic acid]
9.09	CCCCCCC(OC)c1cccc(-c2csc(NC(=O)c3cc(Cl)c(C=C(C)C(=O)O)c(Cl)c3)n2)c1F (stereo not shown) [Compound B68, 3-(2,6-dichloro-4-{4-[2-fluoro-3-(1-methyloxyheptyl)phenyl]thiazol-2-ylcarbamoyl}phenyl)-2-methylacrylic acid]
9.11	CCCCCCCC(OC)c1cccc(-c2csc(NC(=O)c3cc(Cl)c(C=C(C)C(=O)O)c(Cl)c3)n2)c1F (stereo not shown) [Compound B69, 3-(2,6-dichloro-4-{4-[2-fluoro-3-(1-methyloxyoctyl)phenyl]thiazol-2-ylcarbamoyl}phenyl)-2-methylacrylic acid]
9.37	CCCCCOC(CCCC)c1cccc(-c2csc(NC(=O)c3cc(Cl)c(C=C(C)C(=O)O)c(Cl)c3)n2)c1F (stereo not shown) [Compound B70, 3-(2,6-dichloro-4-{4-[2-fluoro-3-(1-n-pentyloxypentyl)phenyl]thiazol-2-ylcarbamoyl}phenyl)-2-methylacrylic acid]
9.00	CCCCC(OCC)c1cccc(-c2csc(NC(=O)c3cc(Cl)c(C=C(C)C(=O)O)c(Cl)c3)n2)c1F (stereo not shown) [Compound B71, 3-(2,6-dichloro-4-{4-[3-(1-ethyloxypentyl)-2-fluorophenyl]thiazol-2-ylcarbamoyl}phenyl)-2-methylacrylic acid]
